Here are results for five compounds from patent US20110150795A1, “COSMETIC COMPOSITIONS COMPRISING EXOPOLYSACCHARIDES DERIVED FROM MICROBIAL MATS, AND USE THEREOF” (Innovactiv Inc., priority 2008, published 2011).

Marks after values point to notes of the source that are not given here.

Test [1] deals with intracellular lipid peroxides of irradiated keratinocytes. Description: Lipid peroxides in UV-irradiated keratinocytes (C11-Fluor probe, flow cytometry). The settings on record: 50 μM; UVB 210 mJ/cm^2. The test is classed as cell-based, human. The procedure:
This study was performed to evaluate the effect of EPSs of the invention on the relative quantification of the amount of lipid peroxides (LP) (degradation of skin lipids) in human cells exposed or not to UVA+UVB irradiation. The evaluation was obtained by using a specific fluorescent probe and fluorescence flow cytometry analysis. This method offers a great sensitivity because the fluorescence of each cell is measured and numerous cells are evaluated (10000 cells per experimental condition).
Keratinocytes were pre-cultivated in complete SFM medium up to 100% of confluence. The culture medium was then replaced with assay medium containing or not the tested EPSS or the reference and the cells were incubated at 37° C. and 5% CO2 for 24 h. After incubation, a specific probe, fluorescent analogue of lipids (C11-Fluor) and the tested EPS or the references were incorporated and the cells were incubated at 37° C. and 5% CO2 for 45 minutes. The probe was then eliminated by rinsing with culture medium. The washing medium was replaced with culture medium containing the tested EPSs or the references. Untreated controls were carried out in parallel. The cells were irradiated at 210 mJ/cm^2 UVB. […] The fluorescence parameters were measured by flow cytometry with a FACSArray™ cytometer driven by the FACSArray™ system software (Becton-Dickinson) on 10 000 individual cells (no cell population selection). […]
(In general: In flow cytometry, cells or beads pass a laser one at a time.)

The next test deals with involucrin (INV) mRNA. Description: RT-QPCR gene expression in human keratinocytes: involucrin. Format: cell-based. The settings on record: Table VIII (first step), 24 h. Here is the method:
(§1) This assay was performed in order to measure the effects of the EPSs on the induction of mRNA coding for differentiation proteins (filaggrin, loricrin, involucrin) and for stratum corneum tryptic enzyme involved in desquamation (kallikrein 5, 6 and 7). The relative expression of the selected markers was assayed using the “real time quantitative polymerase chain reaction” technology (RT-QPCR).
(§2) Keratinocytes were pre-cultivated in culture medium. At confluence, the culture medium was changed into assay medium (SFM without EGF and pituitary extract) containing or not (control) the test compound and the cells were incubated for 24 h at 37° C. and 5% CO2. At the end of the experiment, the cells were washed in PBS buffer and immediately frozen at −80° C. with 300 μl per well of Tri-reagent.
(§3) Primers couples allowing the amplification of a specific Polymerase Chain Reactions (PCR) product from each selected marker were used: Liver glyceraldehyde 3-phosphate dehydrogenase (G3PDH) was used as a reference marker in this experiment. The total RNA extraction was performed by Tri-Reagent™ according to the protocol. […]
(§4) Initially, the modulation of gene expression was evaluated on six EPSs at the first concentration (Table VIII). As a second step, it was evaluated on four EPSs at three concentrations (Table IX).

Test [2] deals with kallikrein 7 (KLK7, stratum corneum chymotrypsic enzyme) mRNA. Put plainly: RT-QPCR gene expression in human keratinocytes: KLK7. The settings on record: Table VIII (first step), 24 h. The test is classed as cell-based. Here is the method:
as §1, §2, §3, §4

The next test concerns filaggrin (FLG) mRNA. Description: RT-QPCR gene expression in human keratinocytes: filaggrin. The settings on record: Table VIII (first step), 24 h. Format: cell-based. Here is the method: as §1, §2, §3, §4
The subject of another test is human keratinocytes. Description: Overall desquamation/differentiation gene expression profile in human keratinocytes. Particulars: 24 h. Format: cell-based. The procedure:
as §1, §2, §3, §4

Another test concerns loricrin (LOR) mRNA. Put plainly: RT-QPCR gene expression in human keratinocytes: loricrin. Format: cell-based. Particulars: Table VIII (first step), 24 h. The procedure: as §1, §2, §3, §4
Test [3] concerns kallikrein 6 (KLK6, neurosin) mRNA. Put plainly: RT-QPCR gene expression in human keratinocytes: KLK6. Format: cell-based. The settings on record: Table VIII (first step), 24 h. The procedure: as §1, §2, §3, §4
Another test has as its system kallikrein 5 (KLK5) mRNA. Put plainly: RT-QPCR gene expression in human keratinocytes: KLK5. The test is classed as cell-based. Particulars: Table VIII (first step), 24 h. The procedure: as §1, §2, §3, §4
The subject of test [4] is SkinEthic reconstructed human epidermis. Description: Epidermal lipid synthesis (14C-acetate incorporation, TLC) in reconstructed epidermis. The test is classed as cell-based. Particulars: 10^−6M in culture medium (systemic), 72 h. Here is the method: This study was performed to evaluate the effect of EPSs of the invention on lipid synthesis. Phospholipids (cellular membranes) and neutral lipids (including epidermis specific lipids) were measured separately using thin layer chromatography. SkinEthic™ reconstructed human epidermis was used for model, its composition being close to normal human epidermis.
The epidermal tissues were placed in 24-well plates and cultivated for 12 h in SkinEthic™ medium. The medium was then replaced by fresh medium and the tested EPSS were applied on the surface of epidermis (topical treatment), at the indicated concentrations. Three control epidermises were untreated and three reference epidermises were treated with the retinoic acid, a known stimulant of total skin lipids, in the culture medium (systemic treatment). All treatments were performed in triplicate and cultivated for 72 hours in total. After 24 h treatment, the culture medium was replaced by labelling medium (0.225 μCi/wells of [^14C] acetate) and the epidermises were treated. The labelling was carried out during a 48-hour incubation period. The Radioactive marker used was [2-14C]-Acetic acid sodium salt, Amersham CFA14 (2.04 Gbq/mmol, 55 mCi/mmol). The epidermises were washed in PBS solution and were dissociated. Then, cells were lysed by treatment with perchloric acid at 0.5 M on ice. Lipids were extracted by methanol/chloroform (2:1) and phase separation was performed by addition of PBS and chloroform after neutralisation in accordance with the procedure described by Bligh and Dyer. The radioactivity was quantified by incorporation into organic phase (lipids) with liquid scintillation (LKB 1210 Rackbeta) after chloroform evaporation. The organic phases were dried under nitrogen and thin layer chromatography (TLC; plates Merck K60) was performed by using two solvent systems: chloroform/methanol/water for Phospholipids (50:18:2.6) or hexane/ether/acetic acid for Neutral lipids (15:5.6:0.19). The various metabolites were quantified by performing a direct count of the radioactivity of the various spots on TLC plates with Phosphorlmager Cyclone™ and Multigauge software (Fujifilm).

Another test deals with human skin explants. Description: Antipollution activity on human skin explants (MDA assay, morphology). The settings on record: for MDA concentration: 2 mg per explant topical. Here is the method:
This study was performed to evaluate the antipollution activity of a cosmetic product though its effect against free radicals on normal skin. A mixture of pollutants and heavy metals was used to mimic the harmful effects of an environmental pollution (like fumes, smoke . . . ). Explants were used as a skin model in this experiment as a good model of human skin.
Pieces of human skin (27 explants) were prepared from an abdominal biopsy removed from a healthy subject during cosmetic reductive surgery. They were placed in BEM medium at 37° C. and 5% CO2. The tested EPSS were applied on the surface of epidermis (topical treatment) at the indicated concentrations (2 mg per explant). They were applied the first day (Day 0) and after one, two, three and four days (Day 1, Day 2, Day 3 and Day 4).
At Day 4, 30 μL of a mixture of heavy metals (Table XII) and hydrocarbon was applied on a paper disk and immediately placed on identified explants.
At Day 0 and Day 5, 3 explants of each batch were removed and fixed in Bouin's liquid for morphological observation. After 48 hours in Bouin medium, explants were dehydrated, embedded in paraffin and stained in Masson's Trichrome. The MDA assay (Malondialdehyde, a stable product from the radical alteration) was performed in culture medium of Day 3, 24 h after irradiation to quantify the efficiency of products against free radicals generated by pollutants.

Test [5] has as its system senescent human fibroblasts. Description: Hyaluronic acid synthesis by senescent human fibroblasts (ELISA), with or without TGFβ. The settings on record: for HA / HA % of control: 72 h. Format: cell-based. An excerpt:
This study has been performed in order to evaluate the effects of the EPSs on the synthesis of hyaluronic acid by senescent human fibroblasts. […] These senescent cells are obtained by subcultures of normal dermal fibroblasts and a senescent phenotype is obtained from the 12th passage.
This effect was attributed to an increase in sensitivity of cells to EGF. Based on this observation for EGF, a similar situation could exist for other factors like TGFβ. TGFβ has the ability to trigger HA synthesis. It has been observed however, that older cells become desensitized to TGFβ. Two types of effects of EPSS have thus been tested: their direct effect on the production of HA and their possibility to restore sensitivity of the cells to TGFβ.
Senescent fibroblasts were pre-cultivated for 24 hours until confluence. Then, the culture medium was removed and replaced by assay medium containing or not (control), the tested EPSS alone, TGFβ alone or the mix of tested EPSS with TGFβ. The cells were then cultivated for 72 hours. At the end of the incubation, the hyaluronic acid concentration was evaluated in the supernatant by a standard ELISA assay according to the manufacturer's procedures (R&D Systems DY3614) and cell viability was evaluated by using a standard MTT incorporation assay.
On the technique in general: ELISA stands for enzyme-linked immunosorbent assay.

Where [6] appears, read: skin explants without contaminant.
Where [7] appears, read: culture with TGFβ section, TGFβ alone 1 · 10^−5 g/L (reference of this section).
The mark [8] stands for this setting: culture without TGFβ section, TGFβ alone 1 · 10^−5 g/L.

Take `COc1ccc(O)c(C(C)(C)C)c1` [BHA]: the “% protection (intracellular lipid peroxides)” value in test [1] worked out at 76%.

On to `[Ca+2].[Cl-].[Cl-]` [CaCl2], for which the “INV expression (control = 100)” value with involucrin (INV) mRNA (1.5 mM) was 282. In addition, the “KLK7 expression (control = 100)” value in test [2] (1.5 mM) is recorded as 291. In addition, the “FLG expression (control = 100)” value in the test on filaggrin (FLG) mRNA (1.5 mM) came out at 125. Further, the “desquamation/differentiation gene expression profile” value in the test with human keratinocytes is given as “pro differentiation profile”. Further, the “LOR expression (control = 100)” value in the test with loricrin (LOR) mRNA (1.5 mM) is 98. For the same compound, in test [3] (1.5 mM), the “KLK6 expression (control = 100)” value came to 110. The “KLK5 expression (control = 100)” value in the test on kallikrein 5 (KLK5) mRNA (1.5 mM) stood at 207.

As to `CC1=C(/C=C/C(C)=C/C=C/C(C)=C/C(=O)O)C(C)(C)CCC1` [Retinoic acid], the “INV expression (control = 100)” value in the test on involucrin (INV) mRNA (10^−7M) stood at 79. Moreover, the “KLK7 expression (control = 100)” value in [2] (10^−7M) was 268. In the test on filaggrin (FLG) mRNA (10^−7M), the “FLG expression (control = 100)” value was 35. Moreover, the “LOR expression (control = 100)” value with loricrin (LOR) mRNA (10^−7M) was determined as 29. Besides, the “KLK6 expression (control = 100)” value in test [3] (10^−7M) is given as 315. In [4], the “Ceramides and cerebrosides (Cera/Cere) synthesis” value was 85* % Control; the “Cholesterol (C) synthesis” value is recorded as 77* % Control; the “Esterified Fatty Acids (EFA) synthesis” value is 133 % Control; the “Free Fatty Acids (FFA) synthesis” value amounted to 76 % Control. Besides, in [4], the “Phospholipids (PL) synthesis” value came to 105 % Control, the “Sphingomyelin (SM) synthesis” value amounted to 106 % Control, the “Sulfate Cholesterol (CSO4) synthesis” value was 92 % Control and the “Total Lipids (TL) synthesis” value was 175** % Control. Also, the “Total Lipids (TL) synthesis” value in test [4] (listed as retinoic acid) is 175 % Control. For the same compound, the “KLK5 expression (control = 100)” value in the test on kallikrein 5 (KLK5) mRNA (10^−7M) turned out to be 146.

On to `Cc1c(C)c2c(c(C)c1O)CC[C@@](C)(CCC[C@H](C)CCC[C@H](C)CCCC(C)C)O2` [α tocopherol], for which, in the test on human skin explants (skin explants + contaminant), the “% pollution” value worked out at 24.13%, the “% protection” value came out at 75.9% and the “antipollution activity (conclusion of MDA assay)” value is “reduced pollutants activity”. For the same compound, the MDA concentration in the test on human skin explants (skin explants + contaminant (heavy metals and hydrocarbon)) came out at 544.93 pmol/mL. In addition, in the test on human skin explants (setting [6]), the “% pollution” value turned out to be 0.00% and the MDA concentration stood at 392.28 pmol/mL.

For TGFβ, the “increase of hyaluronic acid synthesis” value in test [5] (TGFβ at 10 ng/ml) was 4 folds. Moreover, in test [5] (setting [7]), the HA was found to be 16.05 µg/mL and the “HA % of control” value is 100%. In [5] (setting [8]), the HA is 11.73 µg/mL and the “HA % of control” value is reported as 473** %.
